Experimental findings from US6268391A, “Benzylidene-1,3-dihydro-indol-2-one derivatives a receptor tyrosine kinase inhibitors, particularly of Raf kinases” (Glaxo Wellcome Inc., priority 1997, dated 2001) are described below.

In one assay the target is T1, Human cRaf1 (Homo sapiens, UniProt P04049).
T1 construct: poly-histidine (C); made in house
The assay is described as follows: Raf kinase assay (cRaf1 assay / Raf/MEK cascade assay). Format: biochemical.

The subject of assay [1] is SW620 (human colon carcinoma cell line). The assay is described as follows: Cell Based Efficacy (MTT Assay), SW620. The conditions noted are these: SW-620, 72 hours with compound, 50% inhibitory concentration. As for the experimental part:
(§1) The potency of compounds of the invention are tested for their ability to inhibit cell proliferation and cell viability. The metabolic conversion of 3-(4,5-dimethylthiazol-2-yl)-2,5-diphenyltetrazolium bromide (MTT, Sigma #M2128) to a reduced form is a commonly used measure of cellular viability. Following is the procedure:
(§2) Cells are maintained in 75 cm^2 tissue culture flasks until ready for use. The cells are grown and plated for the assay in Dulbecco's modified Eagle's media containing 10% fetal bovine serum. For example, the following cell lines can be used: a) human foreskin fibroblasts (HFF), b) HT29 (human colon carcinoma cell line), c) MDA-MB-468 (human breast carcinoma cell line), d) RKO (human colon adenocarcinoma cell line), e) SW620 (human colon carcinoma cell line), f) A549 (human lung carcinoma cell line), and g) MIA PACA (human pancreatic carcinoma cell line). Cells are maintained at 37° C. in 10% CO2, 90% humidified air. Cells are plated in 96-well tissue culture plates at the densities listed below. 100 μL of cell suspension is added to each well of the 96-well plate except the top row of the plate which contains no cells and serves as a reference for the spectrophotometer. […]
(§3) Cells are incubated overnight in Dulbecco's modified Eagle's media containing 10% fetal bovine serum at 37° C. in 10% CO2, 90% humidified air prior to dosing. Cells are dosed in 10 sequential 3-fold dilutions starting at 30 uM depending upon the solubility of the compound. Compounds with solubilities of less than 30 uM are dosed at the highest soluble concentration. Stock solutions of compounds are made in 100% dimethyl sulfoxide (DMSO). Stock solutions are diluted in Dulbecco's modified Eagle's media containing 100 ug/mL gentamicin and 0.3 to 0.6% DMSO at the twice the highest concentration to be placed on the cells. If compounds have been dissolved in DMSO the final concentration of DMSO on the cells is kept below 0.3%. 3-fold serial dilutions are performed on each compound to prepare 10 concentrations of the compound for dosing. 100 μL of diluted compound is added to the 100 μL of media currently on the dish. For each concentration of compound, 2-4 replicate wells are prepared.
(§4) Cells are returned to incubator and allowed to proliferate in the presence of compound for 72 hours before addition of MTT. MTT is prepared in phosphate buffered saline (Irvine Scientific #9240) at a concentration of 2mg/mL. 50 μL per well of MTT solution is added to the 200 μL of media to yield a final concentration of 0.4 mg/mL and plates are returned to the incubator for 4 hours. After 4 hours incubation the media, compound and MTT mixture is aspirated from the plates and 100 μL of 100% DMSO is added to each well in addition to 25 μL of Sorenson's Buffer (0.1M glycine, 0.1M NaCl, pH 10.5). Quantitation of metabolic reduction of MTT in each plate is performed by reading optical density at 570 nm wavelength on a Molecular Devices UVmax microplate reader. Growth inhibition curves and 50% inhibitory concentrations are determined using Microsoft Excel.
(§5) Table 4 illustrates the inhibitory activity of compounds of the present invention against a representative kinase (raf) and the cytotoxicity of compounds of the present invention against a broad range of human tumor cell lines.

The subject of assay [2] is MIA PACA (human pancreatic carcinoma cell line). The experiment in a line: Cell Based Efficacy (MTT Assay), MIA PACA. The conditions noted are these: MIA PaCa-2, 72 hours with compound, 50% inhibitory concentration. As for the experimental part:
as §1
(§6) Cells are maintained in 75 cm^2 tissue culture flasks until ready for use. The cells are grown and plated for the assay in Dulbecco's modified Eagle's media containing 10% fetal bovine serum. For example, the following cell lines can be used: a) human foreskin fibroblasts (HFF), b) HT29 (human colon carcinoma cell line), c) MDA-MB-468 (human breast carcinoma cell line), d) RKO (human colon adenocarcinoma cell line), e) SW620 (human colon carcinoma cell line), f) A549 (human lung carcinoma cell line), and g) MIA PACA (human pancreatic carcinoma cell line). Cells are maintained at 37° C. in 10% CO2, 90% humidified air. Cells are plated in 96-well tissue culture plates at the densities listed below. 100 μL of cell suspension is added to each well of the 96-well plate except the top row of the plate which contains no cells and serves as a reference for the spectrophotometer.
MIA PACA 3000 cells/well
as §3, §4, §5

The test system of assay [3] is MDA-MB-468 (human breast carcinoma cell line). The experiment in a line: Cell Based Efficacy (MTT Assay), MDA-MB-468. The conditions noted are these: 72 hours with compound, 50% inhibitory concentration. As for the experimental part:
as §1, §2, §3, §4, §5

For the next assay, the system named is PC-3 (prostate). The experiment in a line: Cell Based Efficacy (MTT Assay), PC-3. The conditions noted are these: Homo sapiens; 72 hours with compound; 50% inhibitory concentration. As for the experimental part: as §1, §6, §3, §4, §5
Assay [4] has as its system HT29 (human colon carcinoma cell line). The experiment in a line: Cell Based Efficacy (MTT Assay), HT29. The conditions noted are these: HT-29, 72 hours with compound, 50% inhibitory concentration. As for the experimental part:
as §1, §6, §3, §4, §5

The subject of another assay is HT-29 xenograft. The assay is described as follows: Anti-tumor study in mice, HT-29 xenograft. Format: in vivo. As for the experimental part:
(§7) Mice are acquired from Taconic Farms and are maintained in Microisolator cages at 72±2° F. with a 12 hour light/dark cycle. Animals are housed at 4 mice per cage (28×17×12 cm ) and are given food and water ad libitum. Animals are numbered through the use of an ear punch or tail tattoo. All animal handling is done in a laminar flow hood.
(§8) Solid tumors are measured by caliper measurement through the skin. Caliper measurements are typically made twice weekly. Tumor weight is calculated using the equation (length×width^2 /2)=mg tumor weight.
(§9) Compounds are prepared in a vehicle consisting of DMSO, Cremophore and PBS.
Drug therapy begins when the average tumor size is approximately 40-50 mg, which usually is day 7 after implant. The dose schedule consists of one dose/day for 5 consecutive days. Drugs are administered at 3 or 4 dose-levels based upon the previously-determined maximally tolerated dose. A vehicle control group is also included. Drugs may be administered by either i.v., i.p., s.c., or oral (p.o.) transdermal routes or other alternative routes. Drugs may be administered via tail vein infusion. The injection volume administered for each mouse is usually 0.01-0.02 mL/g of body weight. In the case of i.v. injections and tail vein infusion animals are restrained in a Broome restrainer during handling. Animal are fasted overnight prior to p.o. dosing. […]

The next assay relates to SW620 xenograft. The assay is described as follows: Anti-tumor study in mice, SW620 xenograft. Format: in vivo. The conditions noted are these: 50 mg/kg. As for the experimental part: as §7
SW620, available from the American Type Culture Collection, are grown in media consisting of RPMI 1640 with fetal bovine serum (10%), sodium pyruvate (1.0 mM) and glutamine (2.0 mM). Cells are incubated at 37° C. in 5% CO2. Cells are harvested with trypsin (0.05%), centrifuged, and resuspended in PBS:matrigel (1:1) at 1×10^7 cell/ml.
One of the tumor cell lines used is the colon line SW620. Tumors are initiated by subcutaneous injection of a cell suspension into the right flank of each mouse. The inoculum consists of 2×10^6 cells/mouse/ 0.2 ml in PBS:matrigel (1:1).
as §8, §9
Drug therapy begins when the average tumor size is approximately 40-50 mg, which usually is day 7 after implant. […] Drugs are administered at 3 or 4 dose-levels based upon the previously-determined maximally tolerated dose. […]

The mark [5] stands for this setting: Table 3, read-out: Raf Kinase activity.

Read-outs that look alike come from different tables or passages of the source.

T1 sequence (P04049 whole entry): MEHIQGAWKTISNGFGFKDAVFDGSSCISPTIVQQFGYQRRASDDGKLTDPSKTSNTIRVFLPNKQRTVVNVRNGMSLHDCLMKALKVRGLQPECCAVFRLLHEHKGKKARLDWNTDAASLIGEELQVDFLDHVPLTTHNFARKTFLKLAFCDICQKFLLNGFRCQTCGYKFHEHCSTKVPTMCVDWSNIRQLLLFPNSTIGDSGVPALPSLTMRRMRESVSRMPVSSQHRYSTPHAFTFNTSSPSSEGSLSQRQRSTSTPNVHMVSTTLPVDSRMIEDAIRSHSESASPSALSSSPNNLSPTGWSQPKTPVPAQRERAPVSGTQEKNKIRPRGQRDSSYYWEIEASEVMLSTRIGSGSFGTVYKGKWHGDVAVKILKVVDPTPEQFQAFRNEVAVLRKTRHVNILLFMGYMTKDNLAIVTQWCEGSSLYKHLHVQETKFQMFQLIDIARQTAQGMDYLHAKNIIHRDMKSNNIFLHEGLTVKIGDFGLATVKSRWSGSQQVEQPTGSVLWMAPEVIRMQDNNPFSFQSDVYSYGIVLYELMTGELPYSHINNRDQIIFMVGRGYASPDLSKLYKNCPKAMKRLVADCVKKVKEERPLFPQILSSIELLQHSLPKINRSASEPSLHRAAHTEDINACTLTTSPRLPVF

As to `N#Cc1ccc2c(c1)C(=Cc1cc(Br)c(O)c(Br)c1)C(=O)N2` [Example 1, 3-(3,5-Dibromo-4-hydroxy-benzylidine)-2-oxo-2,3-dihydro-1H-indole-5-carbonitrile], the IC50 at Human cRaf1 (setting [5]) was less than 1 µM; on Human cRaf1 (Table 4, read-out: Raf) it was less than 0.5 µM; in assay [1], 5 to 50 µM; in assay [2], 5 to 50 µM; in assay [3], 5 to 50 µM; in the assay with PC-3 (prostate), 5 to 50 µM. In addition, in assay [4], the IC50 lay in the range of 5 to 50 µM.
As for `Cc1nc(-c2ccc3c(c2)C(=Cc2cc(Br)c(O)c(Br)c2)C(=O)N3)cs1` [Example 2, 3-(3,5-Dibromo-4-hydroxy-benzylidene)-5-(2-methyl-thiazol-4-yl)-1,3-dihydro-indol-2-one], the IC50 on Human cRaf1 (setting [5]) is less than 1 µM; at Human cRaf1 (Table 4, read-out: Raf) it was less than 0.5 µM; in assay [1], 0.5 to 5 µM; in assay [2], 0.5 to 5 µM; in assay [3], 0.5 to 5 µM; in the assay with PC-3 (prostate) it was 5 to 50 µM. For the same compound, in assay [4], the IC50 lay within 0.5 to 5 µM. Moreover, the “Tumor Response % Inhibition @ mg/kg” value with HT-29 xenograft (5 mg/kg) was 50%.
As for `CCOc1cc(C=C2C(=O)Nc3ccc(C(=O)c4ccccc4)cc32)cc(Br)c1O` [Example 8, 5-Benzoyl-3-(3-bromo-5-ethoxy-4-hydroxy-benzylidene)-1,3-dihydro-indol-2-one], the IC50 at Human cRaf1 (setting [5]) was less than 1 µM; at Human cRaf1 (Table 4, read-out: Raf) it was less than 0.5 µM; in assay [1] it was 5 to 50 µM; in assay [2] it was 5 to 50 µM; in assay [3] it was 5 to 50 µM; in the assay on PC-3 (prostate), 5 to 50 µM. In addition, the IC50 in assay [4] lay in the range of 5 to 50 µM.
Take `NCc1ccc2c(c1)C(=Cc1cc(Br)c(O)c(Br)c1)C(=O)N2` [Example 25, 5-Aminomethyl-3-(3,5-dibromo-4-hydroxy-benzylidene)-1,3-dihydro-indol-2-one]: the IC50 was in the range of 1 to 10 µM at Human cRaf1 (setting [5]); 0.5 to 5 µM at Human cRaf1 (Table 4, read-out: Raf); 5 to 50 µM in assay [1]; 5 to 50 µM in assay [2]; 5 to 50 µM in assay [3]; 5 to 50 µM in the assay on PC-3 (prostate). Besides, the IC50 in assay [4] was in the range of 5 to 50 µM.
Consider `O=C1Nc2ccc(C(=O)CCl)cc2C1=Cc1cc(Br)c(O)c(Br)c1` [Example 84, 5-(2-Chloro-acetyl)-3-(3,5-dibromo-4-hydroxy-benzylidene)-1,3-dihydro-indol-2-one], for which, at Human cRaf1 (setting [5]), the IC50 was less than 1 µM. The “Tumor Response % Inhibition @ mg/kg” value in the assay on HT-29 xenograft (25 mg/kg) is reported as 50%.
In the case of `CCN(CC)CC(=O)c1ccc2c(c1)C(=Cc1cc(Cl)c(O)c(Cl)c1)C(=O)N2` [Example 85, 3-(3,5-Dichloro-4-hydroxy-benzylidene)-5-(2-diethylamino-acetyl)-1,3-dihydro-indol-2-one], the IC50 at Human cRaf1 (setting [5]) is less than 1 µM. Moreover, in the assay with SW620 xenograft, the “Tumor Response % Inhibition @ mg/kg” value is given as 40%.
With `O=C1Nc2ccc3ncccc3c2C1=Cc1cc(Br)c(O)c(Br)c1` [Example 119, 1-(3,5-Dibromo-4-hydroxy-benzylidene)-1,3-dihydro-pyrrolo[3,2-f]quinolin-2-one], the IC50 on Human cRaf1 (setting [5]) was less than 1 µM; on Human cRaf1 (Table 4, read-out: Raf), less than 0.5 µM; in assay [1] it was 0.5 to 5 µM; in assay [2] it was 0.5 to 5 µM; in assay [3], 0.5 to 5 µM; in the assay on PC-3 (prostate) it was 0.5 to 5 µM. Besides, the IC50 in assay [4] lay in the range of 0.5 to 5 µM.
`O=C1Nc2ccc3ncsc3c2C1=Cc1cc(Br)c(O)c(Br)c1` [Example 121, 8-(3,5-Dibromo-4-hydroxy-benzylidine)-6,8-dihydro-1-thia-3,6-diaza-as-indacen-7-one]: the IC50 is less than 1 µM at Human cRaf1 (setting [5]); less than 0.5 µM at Human cRaf1 (Table 4, read-out: Raf); 0.5 to 5 µM in assay [1]; 5 to 50 µM in assay [2]; 0.5 to 5 µM in assay [3]; 0.5 to 5 µM in assay [4].
In the case of `Cc1nc(-c2ccc3c(c2)C(=Cc2cc([N+](=O)[O-])c(O)c([N+](=O)[O-])c2)C(=O)N3)cs1` [Example 130, 3-(3,5-Dinitro-4-hydroxy-benzylidene)-5-(2-methyl-thiazol-4-yl)-1,3-dihydro-indol-2-one], the IC50 at Human cRaf1 (setting [5]) was less than 1 µM; on Human cRaf1 (Table 4, read-out: Raf), less than 0.5 µM; in assay [1], 5 to 50 µM; in assay [2], 5 to 50 µM; in assay [3], 5 to 50 µM; in the assay with PC-3 (prostate), greater than 50 µM. The IC50 in assay [4] was greater than 50 µM.
For the compound `O=C1Nc2cc(Br)ccc2C1=Cc1cc(Cl)c(O)c(Cl)c1` [Example 133, 6-Bromo-3-(3,5-dichloro-4-hydroxy-benzylidene)-1,3-dihydro-indol-2-one], the IC50 is less than 1 µM at Human cRaf1 (setting [5]); less than 0.5 µM at Human cRaf1 (Table 4, read-out: Raf); 5 to 50 µM in assay [1]; 5 to 50 µM in assay [2]; 0.5 to 5 µM in assay [3]; 5 to 50 µM in the assay with PC-3 (prostate). For the same compound, the IC50 in assay [4] lay within 0.5 to 5 µM.
For the compound `Cn1nnc(-c2ccc3c(c2)C(=Cc2cc(Br)c(O)c(Br)c2)C(=O)N3)n1` [Example 143, 3-(3,5-Dibromo-4-hydroxy-benzylidene)-5-(2-methyl-2H-tetrazol-5-yl)-1,3-dihydro-indol-2-one], the IC50 was less than 1 µM on Human cRaf1 (setting [5]); less than 0.5 µM at Human cRaf1 (Table 4, read-out: Raf); 0.5 to 5 µM in assay [1]; 0.5 to 5 µM in assay [3]; 0.5 to 5 µM in assay [4].
With `O=C1Nc2ccc(C(=O)NCc3ccncc3)cc2C1=Cc1cc(Br)c(O)c(Br)c1` [Example 181, 3-[(3,5-dibromo-4-hydroxyphenyl)methylidene]-2-oxo-N-(4-pyridinylmethyl)-1,2-dihydro-3H-indole-5-carboxamide], the IC50 at Human cRaf1 (setting [5]) is less than 1 µM.
